Measurements reported in patent publication US12396988B2, “Methods of using muscarinic antagonists in the treatment of depression” (BOARD OF REGENTS, THE UNIVERSITY OF TEXAS SYSTEM, priority 2019, dated 2025).
“Also recorded” adds a separate entry of the source. Counter-ions that a name gives are not always drawn.

Experiments:
rats [1] = assay: Forced swim test (FST); format: in vivo; conditions: 3 mg/kg, 30 min before a 15-min swim, FIG. 4
Experimental: In the FST, the rats are injected with a test compound and 30 minutes later placed individually in a cylindrical container filled with water at room temperature. The rat's behavior is videotaped from above and is later scored by a trained observed who is blind to the drug conditions. Behavior is classified every 5 seconds over the 15 minute swim period as the following: immobility the rat is hanging quietly in the water, making only enough movement to keep its nose out of the water; swimming moving limbs in an active manner, climbing or actively moving its forepaws against the side of the chamber.
Rats of both sexes as well as rats from the Flinders straw were used for forced swim tests. The rats were injected with a saline control or CJ2100 (0.1 mg/kg, 0.3 mg/kg, 1 mg/kg, or 3 mg/kg) and 30 min later placed individually a cylindrical container (46 cm tall×20 cm, diameter) filled to 30 cm with 25° C. water for a single 15-min forced swim test. Rat behavior was videotaped from above and later scored by a trained observer who was blind to the drug conditions. Behavior was classified every 5 seconds over the 15 minute swim period as following: immobility rat was hanging quietly in the water, making only enough movement to keep its nose out of the water; swimming moving limbs in an active manner, climbing, or actively moving its forepaws against the side of the chamber. […]

rats [2] = assay: Drug discrimination test (arecoline vs saline; discriminative stimulus and rate-decreasing effects of arecoline); format: in vivo, Sprague-Dawley rats; conditions: 1.0 mg/kg CJ2100, rats, FIG. 2
Description: Rats are initially trained to nose-poke 10 times in any aperture to receive a dipper of Ensure (fixed ratio 10 FR-10 schedule of reinforcement). Nose-poke biases are noted, and the following assignments are made for the 2-nose-poke condition: 1) approximately half of the rats in each group will have the drug-associated aperture on the left, and the remaining rats will have the drug-associated aperture on the right; 2) the drug-associated aperture is assigned to the non-preferred side in half of the rats.
During training, the rats are injected with saline or their training drug and immediately placed in the chamber for a 5-min blackout, followed by a 20-min response period. […]
When these criteria have been met on 3 consecutive days, testing can begin. […] When the effects of putative antagonists are to be evaluated, these drugs are given 15 min before the start of the session, and the training drug is injected immediately before the rat is placed in the chamber. […]
Data analysis: Full generalization to a test compound is defined as >85% responding on the drug-appropriate aperture, and completing at least one ratio. Discrimination data are expressed as the percent responses on the drug-appropriate aperture, out of the total number of responses made in both apertures. Rates of responding are calculated as well: total number of responses/time during the light-on parts of the session. […]

M2 receptor = biological target: T1, M2 receptor (Rattus norvegicus, UniProt P10980); assay: Cardiovascular assay (bradycardia test): antagonism of arecoline-induced bradycardia, telemetry; format: in vivo; conditions: 1 mg/kg test compound s.c. before 10 mg/kg arecoline s.c., rats, FIG. 1
T1 construct: To measure changes in heart rate and mean arterial pressure, rats were implanted with telemetric transmitters; from tissue; host or cells: intact living rats (cardiovascular system, telemetry)
T1 sequence (P10980 1-466): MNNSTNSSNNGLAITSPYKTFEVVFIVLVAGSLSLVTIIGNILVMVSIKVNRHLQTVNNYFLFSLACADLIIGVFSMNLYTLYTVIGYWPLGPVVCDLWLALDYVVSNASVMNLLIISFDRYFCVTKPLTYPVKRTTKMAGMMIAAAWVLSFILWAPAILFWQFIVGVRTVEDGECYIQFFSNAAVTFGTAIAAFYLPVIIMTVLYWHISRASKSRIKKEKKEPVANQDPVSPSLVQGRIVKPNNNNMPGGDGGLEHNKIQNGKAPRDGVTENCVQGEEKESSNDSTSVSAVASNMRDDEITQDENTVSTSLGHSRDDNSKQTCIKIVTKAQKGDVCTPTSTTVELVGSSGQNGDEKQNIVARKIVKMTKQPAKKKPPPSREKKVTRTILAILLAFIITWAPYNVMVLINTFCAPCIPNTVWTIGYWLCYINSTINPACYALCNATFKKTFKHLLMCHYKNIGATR
Description: All rats continued to have free access to food and water at all times.

rats [3] = assay: Cognitive evaluation: psychomotor vigilance (PVT) touch-screen task, attention; format: in vivo; conditions: doses 0.1-10 mg/kg, FIG. 5 right panel
Description: Psychomotor vigilance is used to evaluate drug effects of attention and vigilance over a period of time. Championed by David Dinges of U. Penn School of Medicine, it is a reaction timed task to measure the speed with which subjects responds to a visual stimulus. In the task, stimuli of varying intensity are presented to a subject (a rat) in randomized location on the screen following unpredictable intervals. The reaction time of the rat to the stimuli will provide a reliable attention threshold in each individual subject. Attention will decrease over time which serves as a baseline for degradation of sustained vigilance. For these studies, a stimulus is presented on a screen in a random location following a variable time interval (5, 15, 30 seconds). Duration of presentation of the stimulus is 2 seconds on first trial. If the correct stimulus is touched by the rat within 2 seconds, a mild reward is delivered and duration of stimulus presentation is […] by 0.25 seconds for subsequent trials (across 500 trials).
(§1) Additional tests involved a novel touch-screen procedure that evaluated memory (delayed-matching-to-sample, DMTS) and attention (psychomotor vigilance, PVT).
Psychomotor vigilance (PVT) is used to evaluate drug effects on attention and vigilance over a period of time. Championed by David Dinges of U. Penn. […]

rats [4] = assay: Cognitive evaluation: delayed-matching-to-sample (DMTS) touch-screen task, short-term memory; format: in vivo; conditions: doses 0.1-3.2 mg/kg, FIG. 5 left panel
Description: In cognitive evaluation tests, rats are exposed to a touch screen procedure that evaluates memory (delayed matching to sample, DMTS) and attention (psychomotor vigilance). In the DTMS, a commonly used recognition task to test short-term memory, the subject (a rat) is presented with a sample stimulus. In our procedure, when the rats touch the sample stimulus it terminates on the screen. After a pre-set delay two comparison stimuli appear. A touch response on the comparison stimulus that matches some physical property of the sample stimulus (i.e. color) results in reward delivery. Touching the incorrect comparison stimulus results in a timeout. Accuracy is then plotted vs different delay values to determine a “forgetting function”. This same procedure has been used by many others to assess the deleterious effects of various classes of psychoactive drugs.
as §1
In the DMTS, a commonly used recognition task to test short-term memory, rats were presented with a sample stimulus. When the rats touched the sample stimulus, it terminated on the screen. After a pre-set delay, two comparison stimuli appeared. […] Accuracy was then plotted vs. different delay values to determine a “forgetting function.”

humans = conditions: cited from earlier work
rats [5] = conditions: cited from earlier work
[6] = 1.0 mg/kg scopolamine (Winger et al. 2020)

SMILES | Immobility in forced swim test (rats [1]) | Swimming in forced swim test (rats [1]) | Shift to the right in the discriminative stimulus effects of arecoline (rats [2]) | Effect on arecoline-induced bradycardia (M2 receptor) | Effect on ability of the rats to respond in PVT task (cognitive effect) (rats [3]) | Mean titration duration of the stimulus (PVT) (rats [3]) | Effect on ability of the rats to respond in DMTS task (cognitive effect) (rats [4]) | Mean duration of short term memory (DMTS) (rats [4]) | Cognitive side effects (humans) | Anti-depressant effect in humans (humans; oral and intravenous treatment) | Effect on the discriminative stimulus of arecoline (rats [5]; [6]) | Effect on the rate-modifying effects of arecoline (rats [5]; [6]) | Ability to modify the discriminative stimulus effects of arecoline (rats [5]; compared with CJ2100) | Ability to modify the rate-suppressing effects of arecoline (rats [5]; compared with CJ2100)
CN1CCC=C(c2nc(C3CC3)no2)C1 [CJ2100, 3-(3-alkyl-1,2,4-oxadiazol-5-yl)-1,2,5,6-tetrahydro-1-methylpylidine oxalate] | decrease in immobility | significant increase in swimming | ~1 log unit | attenuates this effect; also recorded: complete attenuation of this effect | did not modify the ability of the rats to respond; also recorded: silent | approximately 2 sec | did not modify the ability of the rats to respond; also recorded: silent | approximately 7 sec | – | – | – | – | – | –
CN1[C@@H]2C[C@@H](OC(=O)[C@H](CO)c3ccccc3)C[C@H]1[C@@H]1O[C@@H]12 [scopolamine] | – | – | – | – | – | – | – | – | severe cognitive deficits; also recorded: cognitive impairment including memory disturbances | rapid anti-depressant effects | without affecting the discriminative stimulus of arecoline | appeared to increase the rate-modifying effects of arecoline | much less able than CJ2100 to modify | much less able than CJ2100 to modify
